Laboratory results from US20180207228A1, “PEPTIDE COMBINATIONS AND USES THEREOF FOR TREATING GRASS ALLERGY” (ALK-Abelló A/S, priority 2015, published 2018).
“Also recorded” adds a separate entry of the source. Where no end group is shown, it is not given here.

Legend:
[1] = Extended solubility and short term stability study (visual, U-HPLC recovery, DLS, 90LS, UV-VIS, sum of scores); details: for solubility: pH 4.5
Protocol: For that purpose, the peptides were provided as acetate salts (produced by Innovagen® at a >10 mg scale of manufacturing). To take into account batch-to-batch variations, some peptides were tested from other batches of the manufacturer Innovagen®, as well as from another manufacturer (Almac) and from in-house production. Solubility experiments were performed on peptide in solution in concentrations ranging from 0.5 mg/mL to 3 mg/mL (dry matter)—with the following solvents: • Water • Acetate buffer, pH 4.5 (25 mM sodium acetate containing 250 mM D-Mannitol) • Phosphate buffer, pH 7.0 (25 mM sodium phosphate containing 250 mM D-Mannitol) • Glycine buffer, pH 8.5 (25 mM glycine containing 250 mM D-Mannitol)
The solubility of the peptides was initially investigated by visual inspection and U-HPLC recovery. Visual inspection included assessment of turbidity and presence of particles/aggregates of each peptide solution before and after centrifugation as well as visual inspection of pelleted material. The visual inspection were reported as “clear solution”, “very small precipitation only visible with a magnifier”, “precipitation visible/turbid solution” or “more precipitation/turbid solution”. Filtration of peptide solutions were conducted using syringe based filters containing a polyethersulfone (PES) membrane chemistry and a pore size of 0.2 μm. The amount of the peptide in the supernatant of a filtered sample was determined using U-HPLC with reverse phase chromatography and recovery were determined as described in Example 5.
Peptide solutions were investigated at a time point of 1 hour after production, but were also repeated at later time point (e.g. 24. 48 or 96 hours) to investigate the stability of the peptides.
Peptide solutions were investigated to determine the presence of turbidity/particles/aggregates by use of optical density (OD) and change in UV-VIS absorbance at a wavelength of 320 nm, of the filtrate. […] In addition or as an alternative, the amount of the peptide in the supernatant of a filtered sample was determined using U-HPLC as described above, with the exception that the recovery was determined by dividing the peak area of the filtered sample in relation to the peak area in the original solution prior to filtration. See also Example 5 for further details regarding UV-VIS, and recovery measured by U-HPLC.
The peptides were scored in relation to the outcome of the above mentioned tests: For each peptide in a given buffer and at a given concentration, a sum of test scores was calculated and the sum used to rank the peptides according to solubility: • 1. […] DLS peak 1 number 3 nm gave a score of 1, 3-10 nm gave a score of 2, 10-100 nm gave a score of 3, >100 nm gave a score of 4. • 5. 90LS at 400 nm: Intensity <450 gave a score of 1, <800 gave a score of 2, >800 gave a score of 3. • 6. UV-VIS change in absorbance at 320 nm within 24 hours: 0.01 gave a score of 1, ≤0.05 gave a score of 2, 0.0.2 gave a score of 3 and >0.2 gave a score of 4.

[2] = tested on: grass allergic donor derived T cell lines (TCL-02 DK-2); assay: Cross-reactivity of homologue peptides, proliferation on TCL02-DK2 (Study XR1); assay type: cell-based, human; details: for experimental cross-reactivity: 2 μg/ml, TCL02-DK2, 21 donors
Protocol: To measure the experimental cross-reactivity the proliferation assay of Example 3 was carried out on 21 grass allergic donors (TCL02-DK2). […] Cross-reactivity to Phleum pratense peptides with either close (Lolium perenne (Lol p)) or distant (Phalaris aquatica (Pha a), Cynodon dactylon (Cyn d)) species was experimentally investigated.
For analysing the cross-reactivity data, it was investigated if a donor responds to both native and homologue peptide, XY correlation plots were made where the donor responses to native peptides were plotted versus the donor responses to homologues. […] If less than five donors were responding to the parent peptides, then the data was considered to be in-conclusive, and were thus labelled with “-”. For some of the peptides the analysis was further supported by performing a Spearman r-Non Parametric test (data not shown).
Further the magnitude of T cell response from a parent peptide as defined herein and homologue response were plotted in a XY plot by using GraphPad Prism 6.
To measure the experimental cross-reactivity, the proliferation assay of Example 3 was carried out on 21 grass pollen allergic donors (TCL02-DK2, Study XR1) and 20 grass pollen allergic donors (TCL03−DK1+DK2, Study XR2). […] In Study XR1, Cross-reactivity to Phleum pratense peptides with either close (Lolium perenne-Lol p) or distant ([…]-Pha a, Cynodon dactylon-Cyn d) species was experimentally investigated. In Study XR1, 67 homologue peptides corresponding to 41 native Phleum pratense peptides were investigated together with the 41 Phleum pratense peptides at a concentration of 2 μg/ml. Similarly, study XR2 was carried out on 20 grass pollen allergic donors where donor derived TCL-03 lines were used to investigate Phleum pratense cross-reactivity to Poa pratensis (Poa p), Dactylis glomerata (Dac g), Festuca pratensis (Fes p), Paspalum notatum (Pas n), Sorghum halepense (Sor h), Lolium perenne (Lol p), Phalaris aquatica (Pha a) and Cynodon dactylon (Cyn d).

[3] = Peptide solubility by visual inspection; assay type: physicochemical; details: for Visual inspection after 60 min pH 7 / Visual inspection after centrifugation pH 7: 250 mM D-Mannitol and 25 mM sodium phosphate
Protocol: Water (pH 3-5) • 2. 250 mM D-Mannitol and 25 mM sodium acetate, pH 4.5 • 3. 250 mM D-Mannitol and 25 mM sodium phosphate, pH 7.0 • 4. […] Water (pH 3-5) • 2. 250 mM D-Mannitol and 25 mM sodium acetate, pH 4.5 • 3. 250 mM D-Mannitol and 25 mM sodium phosphate, pH 7.0 • 4. […] A subset of the peptides was selected as candidate peptides for a final peptide mixture. […] During the solubility studies the peptide-containing solutions were inspected visually before and after filtration for turbidity, and presence of particles/aggregates. In addition, presence of turbidity/particles/aggregates was also detected by optical density (OD) or absorbance of filtered material, but might also be detected by size-exclusion chromatography. Furthermore, Sub-visual particles may also be detected by dynamic light scattering (DLS) analysis on filtered and non-filtered peptide containing solutions. Samples were furthermore subjected to centrifugation to allow for the possible visual inspection of pelleted material.

[4] = tested on: grass pollen allergic donor derived TCL-03 lines; assay: Extended cross-reactivity study, proliferation on TCL03 DK1+DK2 (Study XR2), scoring; assay type: cell-based, human; details: study XR2; for Cross-reactivity score, Dac g: homologue from Dac g; for Cross-reactivity score, Lol p: homologue from Lol p; for Cross-reactivity sum: scores of all species added; for Cross-reactivity/species: sum divided by the number of species measured; for Cross-reactivity score, Cyn d: homologue from Cyn d; for Cross-reactivity score, Fes p: homologue from Fes p; for Cross-reactivity score, Pha a: homologue from Pha a; for Cross-reactivity score, Poa p: homologue from Poa p
[5] = tested on: allergen specific T cells; assay: T cell proliferation assay (72 h) on donor derived T cell lines (TCL02/TCL03); assay type: cell-based, human; details: single peptide
Summary of the method: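 Overlapping 20-mer and selected 15-mer grass allergen peptides were screened for proliferation using TCL02 (day 24) or TCL03 (day 34) lines. Lines came from grass-allergic donors' CD8-depleted PBMCs, primed with natural allergen mix and expanded with irradiated autologous or allogeneic APCs, PHA-P 0.5 μg/ml and rIL-2.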

[6] = 3 mg/mL, acetate salt, non-filtered
[7] = 3 mg/mL, acetate salt, non-filtered, after centrifugation

Molecule: GSDPKKLVLNIKYTRPGDSL-OH [peptide 217]
- solubility in all the test samples (concentrations and pH tested), all solubility tests [1]: good solubility
- solubility in aqueous solutions and short-term stability [1]: sufficiently soluble
- solubility [1]: acceptable solubility
- experimental cross-reactivity [2]: showed cross-reactivity
- solubility, 1st round of solubility screening [3]: soluble
- Visual inspection after 60 min pH 4.5 ([3]; 3 mg/mL, acetate salt, non-filtered, 250 mM D-Mannitol and 25 mM sodium acetate, pH 4.5): + particles
- Visual inspection after centrifugation pH 4.5 ([3]; 3 mg/mL, acetate salt, non-filtered, 250 mM D-Mannitol and 25 mM sodium acetate, pH 4.5, after centrifugation): Ok
- Visual inspection after 60 min pH 7 [3, 6]: particles +
- Visual inspection after centrifugation pH 7 [3, 7]: ++
- Cross-reactivity score, Dac g ([4]; score 0 to 7): 1
- Cross-reactivity score, Lol p ([4]; score 0 to 7): 5
- Cross-reactivity sum [4]: 6
- Cross-reactivity/species [4]: 3

Molecule: GFKAALAAAAGVPPADKYRT-OH [peptide 230]
- experimental cross-reactivity [2]: showed cross-reactivity

Molecule: TKKGNVWEVKSSKPLVGPFN-OH [peptide 219]
- experimental cross-reactivity [2]: showed cross-reactivity

Molecule: CC[C@H](C)[C@H](NC(=O)[C@@H](NC(=O)[C@H](CC(=O)O)NC(=O)[C@H](CCC(=O)O)NC(=O)[C@H](C)NC(=O)[C@H](CCC(=O)O)NC(=O)[C@@H](N)[C@@H](C)O)C(C)C)C(=O)N1CCC[C@H]1C(=O)N[C@@H](CCC(=O)O)C(=O)NCC(=O)N[C@@H](Cc1c[nH]c2ccccc12)C(=O)N[C@@H](CCCCN)C(=O)N[C@@H](C)C(=O)N[C@@H](CC(=O)O)C(=O)N[C@H](C(=O)N[C@@H](CO)C(=O)N[C@@H](Cc1ccc(O)cc1)C(=O)N[C@@H](CCC(=O)O)C(=O)N[C@@H](CO)C(=O)N[C@@H](CCCCN)C(=O)O)[C@@H](C)O [peptide 213]
- experimental cross-reactivity [2]: showed cross-reactivity

Molecule: GRGSGSSFEIKSTKPEASSG-OH [compound 202]
- experimental cross-reactivity [2]: showed cross-reactivity

Molecule: KDKWIELKESWGAIWRIDTP-OH [peptide 210]
- experimental cross-reactivity [2]: showed cross-reactivity

Molecule: AGELELQFRRVKSKYPEGTK-OH [peptide 207]
- solubility in all the test samples (concentrations and pH tested), all solubility tests [1]: good solubility
- solubility in aqueous solutions and short-term stability [1]: sufficiently soluble
- solubility [1]: acceptable solubility
- T cell response in % of the donors tested [5]: ~40%
- solubility in aqueous solutions [3]: surprisingly good solubility in aqueous solutions
- solubility, 1st round of solubility screening [3]: soluble
- Visual inspection after 60 min pH 7 [3, 6]: tread +
- Visual inspection after centrifugation pH 7 [3, 7]: +
- Cross-reactivity score, Cyn d ([4]; score 0 to 7): 0
- Cross-reactivity score, Dac g ([4]; score 0 to 7): 3
- Cross-reactivity score, Fes p ([4]; score 0 to 7): 6
- Cross-reactivity score, Lol p ([4]; score 0 to 7): 6
- Cross-reactivity score, Pas n ([4]; homologue from Pas n, score 0 to 7): 0.5
- Cross-reactivity score, Pha a ([4]; score 0 to 7): 6
- Cross-reactivity score, Poa p ([4]; score 0 to 7): 1
- Cross-reactivity sum [4]: 22.5
- Cross-reactivity/species [4]: 3.2

Molecule: YHFDLSGHAFGAMAKKGDEQ-OH [peptide 205]
- solubility in all the test samples (concentrations and pH tested), all solubility tests [1]: good solubility
- solubility in aqueous solutions and short-term stability [1]: sufficiently soluble
- solubility [1]: acceptable solubility
- experimental cross-reactivity [2]: showed cross-reactivity
- solubility, 1st round of solubility screening [3]: soluble
- Cross-reactivity score, Cyn d ([4]; score 0 to 7): 2
- Cross-reactivity score, Dac g ([4]; score 0 to 7): 7
- Cross-reactivity score, Fes p ([4]; score 0 to 7): 7
- Cross-reactivity score, Lol p ([4]; score 0 to 7): 7
- Cross-reactivity score, Pha a ([4]; score 0 to 7): 6
- Cross-reactivity score, Poa p ([4]; score 0 to 7): 3
- Cross-reactivity score, Sor h ([4]; homologue from Sor h, score 0 to 7): 7
- Cross-reactivity sum [4]: 39
- Cross-reactivity/species [4]: 5

Molecule: AYRTAATAANAAPAN-OH [compound 353]
- Cross-reactivity score ([2]; homologue of peptide 241 (Phl p 5), Table 51, based on results from Study XR1 (score 5 upgraded to 7)): 7
- cross-reactivity of homologue ([2]; homologues of peptide 241, Study XR1): very high cross-reactivity

Molecule: EAKYDAYVATLSEALRIIAG-OH [peptide 233]
- experimental cross-reactivity [2]: showed cross-reactivity; also recorded: good cross reactivity

Molecule: HGSEEWEPLTKKGNVWEVKS-OH [compound 218]
- experimental cross-reactivity [2]: showed cross-reactivity
